ChEMBL document CHEMBL1155182, “Diphenylmethylene hydroxamic acids as selective class IIa histone deacetylase inhibitors” (Bioorg Med Chem Lett, 2009)

Assays:
Histone deacetylase 4 = Histone deacetylase 4 (Homo sapiens, UniProt P56524)
Description: Inhibition of human recombinant N-terminal FLAG-tagged HDAC4 (612-1034) expressed in baculovirus after 10 mins by fluorimetric analysis

Histone deacetylase 5 = Histone deacetylase 5 (Homo sapiens, UniProt Q9UQL6)
Description: Inhibition of human recombinant N-terminal FLAG-tagged HDAC5 (620-1122) expressed in baculovirus after 10 mins by fluorimetric analysis

Histone deacetylase 7 = target: T1, Histone deacetylase 7 (Homo sapiens, UniProt Q8WUI4)
T1 sequence (Q8WUI4 whole entry): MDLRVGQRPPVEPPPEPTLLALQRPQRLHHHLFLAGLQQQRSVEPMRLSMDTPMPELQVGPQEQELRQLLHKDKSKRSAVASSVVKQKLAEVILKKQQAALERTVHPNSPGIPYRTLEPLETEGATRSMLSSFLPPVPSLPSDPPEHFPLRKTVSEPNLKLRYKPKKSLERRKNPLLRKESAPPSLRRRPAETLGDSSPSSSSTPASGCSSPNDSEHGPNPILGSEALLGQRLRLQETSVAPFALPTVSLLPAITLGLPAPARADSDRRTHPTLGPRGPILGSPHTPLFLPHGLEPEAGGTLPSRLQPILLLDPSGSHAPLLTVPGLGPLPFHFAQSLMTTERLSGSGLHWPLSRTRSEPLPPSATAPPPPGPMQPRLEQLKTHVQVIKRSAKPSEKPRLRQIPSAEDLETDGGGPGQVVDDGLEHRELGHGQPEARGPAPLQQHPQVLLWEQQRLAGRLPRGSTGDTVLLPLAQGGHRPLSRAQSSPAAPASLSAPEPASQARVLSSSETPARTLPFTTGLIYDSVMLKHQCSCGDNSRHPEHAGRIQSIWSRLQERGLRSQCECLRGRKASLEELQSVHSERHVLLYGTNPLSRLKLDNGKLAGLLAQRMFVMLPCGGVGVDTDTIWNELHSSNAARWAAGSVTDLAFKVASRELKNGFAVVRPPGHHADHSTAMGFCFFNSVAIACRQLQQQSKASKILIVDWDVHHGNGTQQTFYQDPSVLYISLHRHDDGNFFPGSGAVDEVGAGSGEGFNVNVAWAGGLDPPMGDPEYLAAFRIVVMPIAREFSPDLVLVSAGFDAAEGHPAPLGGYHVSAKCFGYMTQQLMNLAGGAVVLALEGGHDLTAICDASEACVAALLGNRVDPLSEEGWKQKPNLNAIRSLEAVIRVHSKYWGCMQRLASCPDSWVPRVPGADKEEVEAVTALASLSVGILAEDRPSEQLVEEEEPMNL
Description: Inhibition of human recombinant N-terminal FLAG-tagged HDAC7 (438-915) expressed in baculovirus after 10 mins by fluorimetric analysis

Histone deacetylase [1] = conditions: hek-293t
Description: Inhibition of class 1 HDAC in HEK293T cells after 16 hrs by whole cell assay

Histone deacetylase [2] = conditions: hek-293t; remark: listed apart in the source
Description: Inhibition of class 2a HDAC in HEK293T cells after 16 hrs by whole cell assay

Chain of Histone deacetylase 4 (P56524 whole entry): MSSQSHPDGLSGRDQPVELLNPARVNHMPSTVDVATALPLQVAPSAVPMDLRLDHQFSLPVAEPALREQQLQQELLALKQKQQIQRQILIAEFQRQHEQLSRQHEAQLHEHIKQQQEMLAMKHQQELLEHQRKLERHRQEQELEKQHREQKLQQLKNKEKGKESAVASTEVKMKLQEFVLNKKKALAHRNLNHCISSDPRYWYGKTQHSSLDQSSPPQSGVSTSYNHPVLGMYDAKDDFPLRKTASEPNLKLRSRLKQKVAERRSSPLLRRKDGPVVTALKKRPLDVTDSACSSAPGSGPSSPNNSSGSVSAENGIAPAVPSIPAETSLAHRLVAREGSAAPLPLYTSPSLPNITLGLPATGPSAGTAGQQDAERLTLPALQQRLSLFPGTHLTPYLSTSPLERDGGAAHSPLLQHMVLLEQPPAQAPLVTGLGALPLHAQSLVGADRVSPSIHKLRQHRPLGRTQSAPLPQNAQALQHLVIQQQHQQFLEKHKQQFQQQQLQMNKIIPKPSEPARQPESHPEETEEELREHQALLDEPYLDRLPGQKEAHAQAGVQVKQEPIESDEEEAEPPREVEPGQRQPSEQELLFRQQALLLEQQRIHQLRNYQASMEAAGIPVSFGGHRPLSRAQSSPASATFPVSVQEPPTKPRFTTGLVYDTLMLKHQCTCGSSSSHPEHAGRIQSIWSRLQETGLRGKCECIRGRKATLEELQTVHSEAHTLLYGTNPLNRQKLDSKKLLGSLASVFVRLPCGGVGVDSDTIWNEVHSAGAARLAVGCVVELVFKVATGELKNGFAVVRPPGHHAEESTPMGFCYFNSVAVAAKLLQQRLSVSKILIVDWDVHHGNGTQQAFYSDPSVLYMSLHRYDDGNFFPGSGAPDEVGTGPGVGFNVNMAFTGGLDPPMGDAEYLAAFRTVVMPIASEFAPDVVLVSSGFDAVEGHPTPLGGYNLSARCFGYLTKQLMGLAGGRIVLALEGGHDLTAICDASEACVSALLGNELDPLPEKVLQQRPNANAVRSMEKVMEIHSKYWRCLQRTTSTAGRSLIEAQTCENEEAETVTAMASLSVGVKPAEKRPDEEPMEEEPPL
Chain of Histone deacetylase 5 (Q9UQL6 whole entry): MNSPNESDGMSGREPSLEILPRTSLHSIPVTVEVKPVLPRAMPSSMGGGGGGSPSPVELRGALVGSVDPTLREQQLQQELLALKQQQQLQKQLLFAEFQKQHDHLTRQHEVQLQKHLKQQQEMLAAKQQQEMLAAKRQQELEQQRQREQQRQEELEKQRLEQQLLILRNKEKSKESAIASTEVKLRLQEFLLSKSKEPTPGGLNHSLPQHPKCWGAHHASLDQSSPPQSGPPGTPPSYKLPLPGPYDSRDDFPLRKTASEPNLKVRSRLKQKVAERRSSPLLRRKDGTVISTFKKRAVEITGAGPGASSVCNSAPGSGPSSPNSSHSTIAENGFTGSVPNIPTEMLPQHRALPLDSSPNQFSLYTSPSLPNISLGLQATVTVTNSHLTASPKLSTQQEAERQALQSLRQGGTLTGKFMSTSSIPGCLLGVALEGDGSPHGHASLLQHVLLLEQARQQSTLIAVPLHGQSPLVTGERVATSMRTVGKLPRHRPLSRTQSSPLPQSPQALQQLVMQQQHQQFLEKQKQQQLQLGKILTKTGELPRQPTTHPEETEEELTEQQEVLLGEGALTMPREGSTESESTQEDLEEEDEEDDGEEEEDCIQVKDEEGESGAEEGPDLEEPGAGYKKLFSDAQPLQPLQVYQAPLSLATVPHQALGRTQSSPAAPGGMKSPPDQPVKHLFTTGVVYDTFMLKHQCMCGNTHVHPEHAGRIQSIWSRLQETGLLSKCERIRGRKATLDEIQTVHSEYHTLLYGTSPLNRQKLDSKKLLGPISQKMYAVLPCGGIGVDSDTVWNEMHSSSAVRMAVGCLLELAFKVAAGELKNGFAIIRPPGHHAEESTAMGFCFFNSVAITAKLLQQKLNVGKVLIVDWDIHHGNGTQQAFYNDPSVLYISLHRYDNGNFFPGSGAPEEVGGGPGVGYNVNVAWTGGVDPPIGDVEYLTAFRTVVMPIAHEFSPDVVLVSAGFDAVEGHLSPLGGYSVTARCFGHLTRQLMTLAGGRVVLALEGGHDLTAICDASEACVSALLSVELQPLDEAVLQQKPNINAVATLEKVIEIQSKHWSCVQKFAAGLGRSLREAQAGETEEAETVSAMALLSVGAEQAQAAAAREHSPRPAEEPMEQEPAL

| Structure (SMILES) | IC50 (Histone deacetylase 4) [nM] | IC50 (Histone deacetylase 5) [nM] | IC50 (Histone deacetylase 7) [µM] | IC50 (Histone deacetylase [1]) [µM] | IC50 (Histone deacetylase [2]) [µM] |
| --- | --- | --- | --- | --- | --- |
| O=C(CC(c1ccccc1)c1ccccc1)NO | > 10000 | > 10000 | > 10 | – | – |
| CC(C(=O)NO)c1ccccc1 (stereo not drawn) | > 10000 | > 10000 | > 10 | – | – |
| O=C(NO)C(c1cccc(F)c1)c1cccc(F)c1 | 700 | 90 | – | – | – |
| O=C(NO)C(c1ccc(Cl)cc1)c1ccc(Cl)cc1 | 960 | 210 | 1.4 | – | – |
| CC(C(=O)NO)(c1ccccc1)c1ccccc1 | 4500 | 1200 | 4.8 | > 50 | 16 |
| O=C(NO)C1c2ccccc2Cc2ccccc21 | 2320 | 1460 | – | – | – |
| O=C(NO)C(c1ccc2c(c1)CCO2)c1ccc2c(c1)CCO2 | 210 | 110 | 0.11 | > 50 | 0.9 |
| O=C(NO)C(Cc1ccccc1)c1ccccc1 (stereo not drawn) | > 10000 | > 10000 | > 10 | – | – |
| CS(=O)(=O)Nc1ccc(C(C(=O)NO)c2ccc(NS(C)(=O)=O)cc2)cc1 | > 10000 | > 10000 | > 10 | > 50 | > 50 |
| O=C(NO)C(c1ccc(F)cc1)c1ccc(F)cc1 | 1100 | 280 | 1.76 | > 50 | 3.5 |
| CN1c2ccccc2C(C(=O)NO)c2ccccc21 | 1910 | 470 | – | – | – |
